The values below come from publication PMC11238919 (Virulence, 2024).

The target in test [1] is T1, SHIP2-SH2 domain (Homo sapiens, UniProt O15357).
T1 sequence (O15357 21-117 limits assumed): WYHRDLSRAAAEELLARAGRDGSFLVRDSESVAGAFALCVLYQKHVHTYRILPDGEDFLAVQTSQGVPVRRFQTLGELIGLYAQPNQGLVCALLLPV
Kind of test: SPR affinity of EPIpYA peptides to immobilized SHIP2-SH2 domain. It counts as binding. The conditions noted are these: EPIpYA-D versus EPIpYA-C.

For test [2], the system named is hummingbird phenotype of infected cells. The test can be described thus: Hummingbird phenotype of infected cells. It counts as cell-based. The conditions noted are these: SHP099 10 µM added 48 h before infection.
Test [3] concerns SHIP2. The conditions noted are these: ref [15]; cited from earlier work.
For test [4], the system named is SHP2. The settings on record: ref [10]; cited from earlier work.
Test [5] concerns the target T2, His-tagged SHIP2-SH2 domain (UniProt O15357 21-117).
T2 sequence (looked up): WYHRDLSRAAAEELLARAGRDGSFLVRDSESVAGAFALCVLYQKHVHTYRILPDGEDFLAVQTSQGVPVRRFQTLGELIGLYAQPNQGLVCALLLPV
Kind of test: SPR.

Several values for one entry are separate records, joined by “and”; a condition that tells them apart may be missing. Equal entries are not always repeated. Where no end group is shown, it is not given here. [ ]: non-standard residue; d: D form. pY = N[C@@H](Cc1ccc(OP(=O)(O)O)cc1)C(=O)O

With `CC[C@H](C)[C@H](NC(=O)[C@@H](NC(=O)[C@H](C)NC(=O)[C@H](Cc1ccc(OP(=O)(O)O)cc1)NC(=O)[C@@H](NC(=O)[C@@H]1CCCN1C(=O)[C@H](CCC(=O)O)NC(=O)[C@@H]1CCCN1C(=O)[C@H](CO)NC(=O)[C@H](C)N)[C@@H](C)CC)[C@@H](C)O)C(=O)N[C@@H](CC(=O)O)C(=O)N[C@@H](Cc1ccccc1)C(=O)N[C@@H](CC(=O)O)C(=O)O` [EPIpYA-D], in test [1], the “KD approximately 10 times lower than that of EPIpYA-C” value is on record as “approximately 10 times”. For `CC1(N)CCN(c2cnc(-c3cccc(Cl)c3Cl)c(N)n2)CC1` [SHP099], in test [2], the “differences in morphological changes between strain groups” value is recorded as “the differences in the morphological changes between the groups were not obvious”.

With “EPIYA-C: EPIYA-C motif of CagA^W (literature)”, the “binding to SHIP2, EPIYA-C versus EPIYA-D” value in test [3] is given as “binds slightly strongly to EPIYA-C than EPIYA-D”. In the case of “EPIYA-D: CagA^E-specific EPIYA-D segment (literature)”, the “binding to SHP2, EPIYA-D versus EPIYA-C” value in test [4] is reported as “binds to SHP2 more strongly than the EPIYA-C segment”.

B1: tyrosine-phosphorylated EPIYA-C peptide (VSPEPIpYATIDDL) (peptide)
peptide: VSPEPI[pY]ATIDDL
Molecule B1 gave a Kd in test [5] of 8.35 µM.

B2: tyrosine-phosphorylated EPIYA-D peptide (ASPEPIpYATIDFD) (peptide)
peptide: ASPEPI[pY]ATIDFD
Regarding B2, the Kd in test [5] is 0.89 µM and 0.896 µM.
